# “Also recorded” adds a separate entry of the source. Counter-ions that a name gives are not always drawn.
# Experiments:
# [1] = system: vertebral, femoral and mesenteric artery flow rates; assay: Vasodilating and cardiovascular properties on intravenous administration in dogs; conditions: for increase in vertebral flow rate: 0.5 mg/kg i.v.
# Protocol: (§1) During the series of pharmacological tests, the following parameters were used:
# Arterial pressure (abbreviated to AP): this parameter, expressed in mm Hg) is evaluated in accordance with the usual conditions.
# Arterial resistance: this parameter (expressed in dynes/sec./cm^-^5) is calculated according to the ratio [formula] Cardiac index: this parameter is expressed in (ml/min.)/kg. Systolic index: this parameter is equal to the ratio cardiac index/frequency.
# (§2) Cardiac work: this parameter (expressed in kgm/min.) is calculated according to the relationship: Cardiac work = average AP (mm Hg) × 1.36 = cardiac output (1/min.) × 10^-^3.
# (§3) Ratio dp/dt: this parameter corresponds to the variation in pressure expressed in mm Hg per second (in English: Rate of rise of left ventricular pressure).
# (§4) The technique used to measure the ratio dp/dt is as follows:
# (§5) The cardiac output is determined in Beagle dogs weighing 10 to 15 kg, anesthetised with pentobarbital, by injecting Carbiogreen (1 mg in 0.5 ml) into the right ventricle. A catheter introduced via the carotid artery into the aorta makes it possible to aspirate arterial blood at the rate of 25 ml/min. and to pass it in front of the photoelectric cell of a Beckman cardiodensitometer. The results are interpreted in accordance with the Hamilton method.
# (§6) In the case of intravenous administration, the tests were carried out on 4 anaesthetised dogs. The product is perfused intravenously over the course of 5 minutes at doses of 2.5, 5 and 10 mg/kg and, in one test, is administered intraduodenally at a dose of 10 mg/kg.
# [2] = Acute toxicity, intravenous, in mice; conditions: mouse, in vivo; for LD50: read-out: LD-50 I.V. in mice; for NOAEL: read-out: Maximum non-toxic dose
# adrenergic receptors = assay: α-blocking action: reversal of the hypertensive effect of adrenalin; format: in vivo, dogs; conditions: for α-blocking / α-lytic action: conclusion or summary; for dose from which the product is α-blocking (adrenolytic): intravenously; for hypertensive effects of adrenalin: orally
# [3] = Analgesic activity, subcutaneous; format: in vivo; conditions: injected subcutaneously
# vertebral artery = assay: Vasodilating properties: injection into the vertebral artery in dogs; format: in vivo; conditions: for decrease in arterial pressure: injection into vertebral artery
# Protocol: On injection into the vertebral artery, no effect is observed at doses of less than 1 mg/kg. At a dose of 10 mg/kg, the flow rate increases by 37% and at a dose of 20 mg/kg it only increases by 27%. At these two doses, the arterial pressure decreases respectively by 14 and 28% although no effect had been observed during the injection into the femoral artery.
# femoral artery = assay: Vasodilating properties: injection into the femoral artery in dogs; format: in vivo; conditions: for increase in flow rate of the femoral artery: injection into femoral artery
# Protocol: On injection into the femoral artery, no effect is observed at doses of less than 100 μg/kg. […] At these doses, no effect is observed on the arterial pressure AP measured in accordance with the usual conditions.
# When administered intra-arterially, the product of Example 6 is injected directly into the femoral artery. The flow rate is increased by 200% from a dose of 10 μg.
# intestinal barrier = assay: Intraduodenal administration in dogs: cardiovascular effects and passage through the intestinal barrier; format: in vivo; conditions: for passage through the intestinal barrier: dogs
# Protocol: as §6
# coronary flow rate = assay: Coronary flow rate and cardiac parameters in anaesthetised dogs, intravenous perfusion; format: in vivo
# Protocol: as §1, §2, §3, §4, §5
# man = assay: Clinical studies in man; format: in vivo
# Text: In clinical studies, good results were obtained in man by administering tablets such as: […]
# [4] = system: acetylcholine, isoprenalin, peripheral vagus; assay: Effect on responses to acetylcholine, isoprenalin and stimulation of the peripheral vagus in dogs; conditions: dog, in vivo
# [5] = system: femoral artery, vertebral artery; assay: Flow rates of femoral and vertebral arteries after oral administration in dogs; format: in vivo
# [6] = injected locally into the femoral or vertebral artery
# [7] = third test, 0.5, 1, 2 and 4 mg/kg i.v. without stopping
# [8] = 4 anaesthetised dogs, 2.5, 5 and 10 mg/kg i.v.
# [9] = anaesthetised dogs (Nembutal), 2.5 mg/kg i.v. over 5 minutes
smiles,measurement,setting,value
"CC(=O)OCCN1CCN(CC2COc3ccccc3O2)CC1 (stereo not shown) [Example 7, 1-[2-(1,4-Benzodioxanyl)-methyl]-4-[2-(acetyloxy)-ethyl]-piperazine dihydrochloride]",hypotension,"[1]; from 2.5 mg/kg i.v., both dogs",a hypotension
same,left ventricular pressure,"[1]; from 2.5 mg/kg i.v., both dogs",a decrease in the left ventricular pressure
same,pulse rate,"[1]; from 2.5 mg/kg i.v., both dogs",does not vary markedly
same,ratio dp/dt,"[1]; from 2.5 mg/kg i.v., both dogs",decrease
same,systolic ejection time,"[1]; from 2.5 mg/kg i.v., both dogs",decrease
same,LD50,[2],86 ± 1 mg/kg
same,NOAEL,[2],80 mg/kg
same,α-blocking / α-lytic action,adrenergic receptors,α-lytic
same,reversal of the hypertension due to adrenalin,"adrenergic receptors; from 2.5 mg/kg i.v., dogs",reversal of the hypertension due to adrenalin
same,dose from which the product is α-blocking (adrenolytic),adrenergic receptors; dogs,2.5 mg/kg
"CC(C)(C)c1ccc2c(c1)OCC(CN1CCN(CCO)CC1)O2 (stereo not shown) [Example 5, 1-[2-(6- or 7-{tertiarybutyl}-1,4-benzodioxanyl)-methyl]-4-(2-hydroxyethyl)-piperazine dihydrochloride]",dose dependence of femoral vasodilating action,"[1]; 2 dogs, i.v.",not proportional to the dose
same,dose from which femoral vasodilating action is maximum,"[1]; 2 dogs, i.v.",3.5 mg/kg
same,vertebral dilating action,"[1]; 2 dogs, i.v.",no vertebral dilating action
same,bradycardia,"[1]; 2 dogs, i.v., 15 mg/kg (last dose)",a bradycardia
same,"femoral vasodilating action, maximum","[1]; 2 dogs, i.v., from 3.5 mg/kg, increase (+)",60%
same,effect on the AP,"[1]; 2 dogs, i.v., up to 15 mg/kg",no effect on the AP
same,vasodilating effect,[1]; summary,exclusively peripheral and very moderate vasodilating effect
same,analgesic activity,[3],analgesic activity of the morphine type
same,"vertebral flow rate, local injection",vertebral artery; [6],"increases both these flow rates in proportion to the doses, but with a preference for the femoral flow rate"
same,LD50,[2],140 ± 8 mg/kg
same,NOAEL,[2],100 mg/kg
same,"femoral flow rate, local injection",femoral artery; [6],"increases both these flow rates in proportion to the doses, but with a preference for the femoral flow rate"
same,minimal effective dose,"intestinal barrier; Canis lupus familiaris, intraduodenal, read-out: dose from which the pulse rate decreases, intraduodenally",7 mg/kg
same,vasodilating effect,"intestinal barrier; intraduodenally, successively 3.5, 7, 15 and 35 mg/kg",no vasodilating effect
"OCCN1CCN(CC2COc3ccccc3O2)CC1 (stereo not shown) [Example 2, 1-[2-(1,4-Benzodioxanyl)-methyl]-4-(2-hydroxyethyl)-piperazine hemifumarate]",duration of increase in flow rate of the vertebral artery,"[1]; another test, 2 mg/kg i.v.",more than 1 hour
same,flow rate of the femoral artery,"[1]; another test, 2 mg/kg i.v.",only increased greatly during the injection
same,pulse rate,"[1]; first and second tests, i.v.",the pulse rate is increased and this effect persists during successive injections
same,effect of additional injections on the flow rate,"[1]; first test, additional 0.5 and 5 mg/kg i.v.",no effect on the flow rate
same,increase in vertebral flow rate,"[1]; second test, beginning of perfusion",135%
same,increase in vertebral flow rate,"[1]; second test, end of perfusion",58%
same,effect of subsequent injections on the flow rate,"[1]; second test, subsequent 1 and 2 mg/kg i.v.",no effect on the flow rate
same,dilation of arteries,[1]; summary,can dilate either the vertebral artery or the femoral artery or both
same,hypotensive effect,"[1]; summary, higher dose","at a higher dose, it is hypotensive"
same,tachycardiac properties,"[1]; summary, low doses",possesses tachycardiac properties at low doses
same,femoral flow rate,[1]; [7],"is increased very much by the first injection, decreases during the subsequent injections"
same,flow rate of the vertebral artery,[1]; [7],increases at each of the injections up to the third
same,decrease in flow rate of the mesenteric artery,"[1]; third test, 0.5, 1, 2 and 4 mg/kg i.v., at each injection",25%
same,cardiac work,coronary flow rate; 5 mg/kg i.v.,an increase in the cardiac work
same,duration of increase in maximum intraventricular pressure,coronary flow rate; 5 mg/kg i.v.,1 h
same,duration of increase in ratio dp/dt,coronary flow rate; 5 mg/kg i.v.,more than 1 hour
same,duration of increase in the differential arterial pressure,coronary flow rate; 5 mg/kg i.v.,1 h
same,duration of tachycardia,coronary flow rate; 5 mg/kg i.v.,more than 2 hours
same,time of maximum effect on coronary flow rate,coronary flow rate; 5 mg/kg i.v.,1 h
same,duration of hypotension,"coronary flow rate; 5 mg/kg i.v., can last",more than 2 hours
same,cardiac work,coronary flow rate; summary,increases the cardiac work
same,coronary irrigation,coronary flow rate; summary,increases the coronary irrigation
same,effect on injection into the vertebral artery,vertebral artery; doses of less than 1 mg/kg,no effect
same,decrease in arterial pressure,vertebral artery; 10 mg/kg,14%
same,decrease in arterial pressure,vertebral artery; 20 mg/kg,28%
same,results in clinical studies in man,man; tablets 50 mg or injectable ampoules 10 mg,good results
same,effect of the stimulation of the peripheral vagus,[4],does not alter
same,effects of the injection of acetylcholine,[4],does not alter
same,effects of the injection of isoprenalin,[4],does not alter
same,LD50,[2],97 ± 2 mg/kg
same,NOAEL,[2],90 mg/kg
same,α-blocking / α-lytic action,adrenergic receptors,acts as an α-lytic product
same,hypertensive effect of adrenalin,adrenergic receptors; dogs,reverses the hypertensive effect of adrenalin in a lasting manner
same,hypertensive effects of adrenalin,"adrenergic receptors; dogs, 5 mg/kg",decreases the said effects
same,hypertensive effects of adrenalin,"adrenergic receptors; dogs, 7 mg/kg",inhibits them strongly
same,hypertensive effects of adrenalin,"adrenergic receptors; dogs, 10 mg/kg",overcomes the α + effect of adrenalin
same,effect on injection into the femoral artery,femoral artery; doses of less than 100 μg/kg,no effect
same,increase in flow rate of the femoral artery,femoral artery; 1 mg/kg,34%
same,increase in flow rate of the femoral artery,femoral artery; 10 mg/kg,90%
same,increase in flow rate of the femoral artery,femoral artery; 20 mg/kg,67%
same,effect on the arterial pressure AP,"femoral artery; injection into femoral artery, 1, 10, 20 mg/kg",no effect
"OCC(O)CN1CCN(CC2COc3ccccc3O2)CC1 (stereo not shown) [Example 3, 1-[2-(1,4-Benzodioxanyl)-methyl]-4-(2,3-dihydroxypropyl)-piperazine dihydrochloride]",AP,"[1]; i.v., 1 mg to 13 mg/kg",little effect on the AP or a slight hypotension
same,cardiac output,"[1]; i.v., 1 mg to 13 mg/kg",scarcely changed
same,differential AP,"[1]; i.v., 1 mg to 13 mg/kg",An increase in the differential AP
same,dp/dt,"[1]; i.v., 1 mg to 13 mg/kg",an increase in dp/dt
same,effect on the vertebral flow rate,"[1]; i.v., 1 mg to 13 mg/kg",no effect on the vertebral flow rate
same,ejection time,"[1]; i.v., 1 mg to 13 mg/kg",shortening of the ejection time
same,rise in the pulse rate,"[1]; i.v., 1 mg to 13 mg/kg",≤ 25%
same,results in man in vascular complaints,"man; tablets containing 20 mg, 2 to 3 per day",good results in vascular complaints
same,LD50,[2],260 ± 11 mg/kg
same,NOAEL,[2],> 170 mg/kg
same,hypertensive effect of adrenalin,adrenergic receptors; 10 mg/kg intraduodenally,reversal of the hypertensive effect of adrenalin
same,α-blocking / α-lytic action,adrenergic receptors,α-blocking agent
same,cardiovascular variations after intraduodenal administration,intestinal barrier; 10 and 50 mg/kg intraduodenally,the variations described after intravenous injection are found again
same,passage through the intestinal barrier,"intestinal barrier; intraduodenal, dihydrochloride",passes easily through the intestinal barrier
"CCC(=O)OCCN1CCN(CC2COc3ccccc3O2)CC1 (stereo not shown) [Example 6, 1-[2-(1,4-Benzodioxanyl)-methyl]-4-[2-(propionyloxy)-ethyl]-piperazine dihydrochloride]",femoral flow rate,[1]; [8],increased in the tests wherein an increase in the pulse rate is observed
same,intraventricular pressure,[1]; [8],decreased
same,pulse rate,[1]; [8],either is not altered (2 tests) or is increased
same,ratio dp/dt,[1]; [8],decreased
same,hypotensive effect,"[1]; 4 anaesthetised dogs, 2.5, 5 and 10 mg/kg i.v. over 5 minutes",A hypotensive effect proportional to the dose
same,time in which the femoral flow rate effect disappears,"[1]; 4 anaesthetised dogs, i.v.",15 min
same,vertebral flow rate,"[1]; 4 anaesthetised dogs, i.v.",only increases in one of the two tests wherein the pulse rate was increased
same,"effect on femoral flow rate, duration and reproducibility",[1]; conclusion,of short duration and is not reproducible
same,LD50,[2],109 ± 9 mg/kg
same,α-blocking / α-lytic action,adrenergic receptors,α-blocking product
same,dose from which the product is α-blocking (adrenolytic),adrenergic receptors; dogs,5 mg/kg
same,mechanism of the vasodilating effect,femoral artery; conclusion,exclusively an alphalytic mechanism
same,vasodilating effect at higher doses,"femoral artery; femoral intra-arterial, up to and including 10 mg, dihydrochloride",do not produce a greater vasodilation; also recorded: maximal from the very start and cannot be increased by higher doses
same,dose from which flow rate is increased by 200%,femoral artery; injected directly into the femoral artery,10 µg
same,activity on intraduodenal administration,intestinal barrier; 10 mg/kg intraduodenally,the activity is found again
same,passage through the intestinal barrier,intestinal barrier; intraduodenal,passes through the intestinal barrier
"c1cnc(N2CCN(CC3COc4ccccc4O3)CC2)nc1 (stereo not shown) [Example 8, 1-[2-(1,4-Benzodioxanyl)-methyl]-4-(2-pyrimidinyl)-piperazine dihydrochloride]",decrease in the vertebral flow rate,[1]; [9],19%
same,effect on the mesenteric flow rate,[1]; [9],practically no effect
same,increase in the differential arterial pressure,[1]; [9],50%
same,tachycardia,"[1]; anaesthetised dogs (Nembutal), 2.5 mg/kg i.v. over 5 minutes, increase (+)",19%
same,femoral vasodilating effect,"[1]; anaesthetised dogs (Nembutal), 2.5 mg/kg i.v. over 5 minutes, slight, increase (+)",19%
same,passage into the general circulation,[5]; 10 mg/kg,the product passes into the general circulation
same,duration of rise in the flow rates,"[5]; orally, 1 to 10 mg/kg",30 min
same,rise in the femoral flow rate,"[5]; orally, 1 to 10 mg/kg",200%
same,rise in the vertebral flow rate,"[5]; orally, 1 to 10 mg/kg",60%
same,flow rate of the femoral artery,"[5]; orally, less than 100 μg/kg",does not alter
same,flow rate of the vertebral artery,"[5]; orally, less than 100 μg/kg",does not alter
same,LD50,[2],145 ± 10 mg/kg
same,α-blocking / α-lytic action,adrenergic receptors,α-blocking action
same,hypertensive effect of adrenalin,adrenergic receptors; dogs anaesthetised by Nembutal,the hypertensive effect of adrenalin is reversed

# Reference: patent publication US3944549A, “Amino derivatives of 1,4-benzodioxan” (priority 1972, dated 1976)
